Values quoted from earlier work as cited in US20260174646A1, “Topical detergent composition comprising ascorbyl glucoside and ascorbyl palmitat” (Mitochon S.r.l., priority 2022, published 2026).

CCCCCCCCCCCCCCCC(=O)OC[C@H](O)[C@H]1OC(=O)C(O)=C1O [ascorbyl palmitate, Ascorbyl palmitate]
ability to release ascorbic acid into the epidermis (refs. [8,9]): reduced ability to release ascorbic acid into the epidermis
tissue levels of ascorbic acid when applied to the skin (topical application, ref. [7]): incapable of increasing tissue levels of ascorbic acid
